According to US12262712B2, “Oxime ether compound and application thereof” (SHENYANG SINOCHEM AGROCHEMICALS R&D CO., LTD., priority 2019, dated 2025):

What was measured:
[1] = system: soybean rust; assay: In vivo pot determination, control effect on soybean rust; settings: foliar spray
Protocol: (§1) An in vivo pot determination method was adopted, i.e., a sample of the compound to be tested was dissolved with a small amount of solvent (the type of the solvent may be, for example, acetone, methanol and DMF, and selected according to the capability to dissolve the sample; the volume ratio of the amount of the solvent to the amount of sprayed solution is equal to or less than 0.05), diluted with water containing 0.1% Tween 80 and formulated into a required concentration of solution to be tested. Foliar spray treatment was carried out with the compounds of the present invention at the designed concentrations. A blank control with clear water spray was set and repeated for three times. Disease inoculation was carried out on the second day after the treatment. After inoculation, the plants were placed in a phytotron for moisturizing cultivation (temperature: 25° C. on day, 20° C. at night, relative humidity 95-99%). […] After the control was fully diseased (generally one week), the control effects of the compounds were evaluated. For the result survey, A Manual of Assessment Keys for Plant Diseases compiled by American Phytopathological Society can be referred to, which uses 100-0 for representation. “100” level represents no disease and “0” level represents the most severe disease degree.

[2] = system: cucumber downy mildew; assay: In vivo pot determination, control effect on cucumber downy mildew; settings: 400 ppm, foliar spray, parallel comparison (Table 4)
Protocol: as §1

[3] = system: bacterial spot of cucumber (Pseudomonas syringae pv. lachrymans); assay: Field trial, control of bacterial spot of cucumber; type: in vivo; settings: whole plant spray three times at 7 day interval, investigated 7 days after last delivery
Protocol: Compounds 47 and 97 were selected from the above compounds for field trial to control bacterial spot of cucumber (Pseudomonas syringae pv. lachrymans). The treatment dose of the test drug was 400 mg/L, and the treatment dose of a control drug CK2 was 700 mg/L. The test drug and the control drug were arranged in random blocks; the plot area was 15 m^2; and repetition was conducted for 3 times. The drug delivery mode was the whole plant spray. Drug delivery was conducted for three times, with an interval of 7 days, and control effect investigation was carried out 7 days after the last drug delivery. During investigation, 5 points in each plot were sampled; all leaves were investigated; and disease indexes and control effects were calculated according to the percentage level of diseased spot area of each leaf in the whole leaf area.

[4] = system: soft rot of Chinese cabbage; assay: Control effect on soft rot of Chinese cabbage (leaf piece, spray, needle wound inoculation); type: in vivo, soft rot bacteria of Chinese cabbage; settings: 400 mg/L, sprayed on leaf, 48 hours in the dark
Text: (§2) The compounds of the present invention are used to determine the control effect on various plant bacterial diseases. For different bacterial diseases, the test procedures are as follows:
Soft rot of Chinese cabbage: 2 cm of square Chinese cabbage leaf is cut and placed in a glass petri dish lined with double-layer filter paper. A compound dissolved in N,N dimethylformamide and diluted with water to a required concentration is sprayed onto the surface of the Chinese cabbage leaf. After the medicinal liquid on the surface of the Chinese cabbage leaf is dried in a fume hood, the surface of the Chinese cabbage leaf is acupunctured by using an inoculating needle to cause a wound. […] of soft rot bacteria of Chinese cabbage cultured to a stable growth period is added to the wound for inoculation. Finally, the test materials are placed in an incubator and cultured for 48 hours in the dark; and the control effect is investigated after full onset of diseases through control.

[5] = system: melon bacterial fruit blotch; assay: Control effect on melon bacterial fruit blotch (seed soak, greenhouse); type: in vivo; settings: 400 mg/L, seeds soaked in bacteria plus compound solution
Protocol: as §2
Melon bacterial fruit blotch: the compound to be tested is dissolved with a small amount of N,N dimethylformamide and diluted with water to the required concentration. The pathogenic bacteria cultured to a stable growth stage is evenly mixed with a quantitative compound solution; the germinated melon seeds are soaked in the mixed solution of a bacteria solution and the compound for half an hour; then, the seeds are sown in an earthworm soil culture cup and put into a greenhouse for moisturizing cultivation for two weeks generally; and the control effect is investigated after full onset of diseases through control.

Structure (SMILES) | control effects on soft rot of Chinese cabbage [4] | control effects on melon bacterial fruit blotch [5] | further results
N#CC(C#N)=NOCc1cnc(Cl)s1 [CK1, reference compound] | – | – | Control Effects on Soybean Rust (%) ([1]; 100 ppm): 0%; Control Effects on Soybean Rust (%) ([1]; 200 ppm): 0%; Control Effects on Cucumber Downy Mildew (%) [2]: 0%
N#CC(C#N)=NOCc1csc(-c2ccccc2)n1 [CK2, reference compound] | – | – | Control Effect (%) ([3]; active ingredient dose 700 mg/L): 76.89%; Control Effects on Cucumber Downy Mildew (%) [2]: 0%
N#CC(C#N)=NOCc1csc(-c2ccc(Cl)cc2)n1 [CK3, reference compound] | – | – | Control Effects on Cucumber Downy Mildew (%) [2]: 0%
N#CC(C#N)=NOCc1csc(NC(=O)c2ccc(Cl)cc2)n1 [Compound 4] | 100% | 100% | –
N#CC(C#N)=NOCc1csc(NC(=O)c2ccccc2F)n1 [Compound 5] | 100% | 100% | –
N#CC(C#N)=NOCc1csc(NC(=O)c2cccc(F)c2)n1 [Compound 6] | 100% | 100% | –
N#CC(C#N)=NOCc1csc(NC(=O)c2ccc(Br)cc2)n1 [Compound 10] | – | – | Control Effects on Soybean Rust (%) ([1]; 100 ppm): 100%; Control Effects on Soybean Rust (%) ([1]; 200 ppm): 100%
N#CC(C#N)=NOCc1csc(NC(=O)c2ccccc2C(F)(F)F)n1 [Compound 20] | 100% | 100% | Control Effects on Cucumber Downy Mildew (%) [2]: 100%
N#CC(C#N)=NOCc1csc(NC(=O)c2ccc(C(F)(F)F)cc2)n1 [Compound 22] | 100% | 100% | –
N#CC(C#N)=NOCc1csc(NC(=O)c2ccccc2OC(F)(F)F)n1 [Compound 23] | 100% | 100% | Control Effects on Soybean Rust (%) ([1]; 100 ppm): 100%; Control Effects on Soybean Rust (%) ([1]; 200 ppm): 100%
N#CC(C#N)=NOCc1csc(NC(=O)c2ccc(Cl)cc2Cl)n1 [Compound 34] | 100% | 100% | –
N#CC(C#N)=NOCc1csc(NC(=O)c2ccc(Cl)c(Cl)c2)n1 [Compound 36] | 100% | 100% | –
N#CC(C#N)=NOCc1csc(NC(=O)c2ccc([N+](=O)[O-])c(F)c2)n1 [Compound 45] | 100% | 100% | Control Effects on Cucumber Downy Mildew (%) [2]: 100%
N#CC(C#N)=NOCc1csc(N)n1 [Compound 47, ((2-aminothiazole-4-yl)methoxy)iminoimide dicyanide] | 100% | 100% | Control Effects on Soybean Rust (%) ([1]; 100 ppm): 85%; Control Effects on Soybean Rust (%) ([1]; 200 ppm): 100%; Control Effect (%) ([3]; active ingredient dose 400 mg/L): 77.00%
N#CC(C#N)=NOCc1csc(NC(=O)c2cccnc2)n1 [Compound 65] | 100% | 100% | –
N#CC(C#N)=NOCc1csc(NC(=O)c2ccc(F)c(C(F)(F)F)c2)n1 [Compound 74] | 100% | 100% | –

Structure (SMILES) | control effects on soft rot of Chinese cabbage [4] | control effects on melon bacterial fruit blotch [5] | further results
N#CC(C#N)=NOCc1csc(NC(=O)c2ccc(F)cc2F)n1 [Compound 86] | 100% | 100% | –
N#CC(C#N)=NOCc1csc(NC(=O)c2ccc(F)c(F)c2)n1 [Compound 87] | 100% | 100% | –
N#CC(C#N)=NOCc1csc(NC(=O)c2ccccc2)n1 [Compound 95] | 100% | 100% | –
CC=CC(=O)Nc1nc(CON=C(C#N)C#N)cs1 [Compound 117] | 100% | 100% | Control Effects on Cucumber Downy Mildew (%) [2]: 100%
CCC(=O)Nc1nc(CON=C(C#N)C#N)cs1 [Compound 118] | 100% | 100% | –
N#CC(C#N)=NOCc1csc(NC(=O)C(F)(F)F)n1 [Compound 119] | 100% | 100% | –
CC(C)(C)OC(=O)Nc1nc(CON=C(C#N)C#N)cs1 [Compound 123] | 100% | 100% | –
N#CC(=NOCc1csc(NC(=O)c2ccccc2Cl)n1)C(N)=O [Compound 134] | 100% | 100% | –
N#CC(=NOCc1csc(N)n1)C(N)=O [Compound 179] | 100% | 100% | Control Effects on Soybean Rust (%) ([1]; 100 ppm): 80%; Control Effects on Soybean Rust (%) ([1]; 200 ppm): 100%
Cc1ccc(S(=O)(=O)Nc2nc(CON=C(C#N)C(N)=O)cs2)cc1 [Compound 228] | 100% | 100% | –
CC(C)(C)OC(=O)Nc1nc(CON=C(C#N)C(N)=O)cs1 [Compound 253] | 100% | 100% | –
CC(=NNc1nc(CON=C(C#N)C#N)cs1)c1ccc(F)cc1 [Compound 361] | 100% | 100% | –
CCc1ccc(C(=O)Nc2nc(CON=C(C#N)C#N)cs2)cc1 [Compound 365] | – | – | Control Effects on Soybean Rust (%) ([1]; 100 ppm): 100%; Control Effects on Soybean Rust (%) ([1]; 200 ppm): 100%
N#CC(C#N)=NOCc1csc(NC(=O)c2ccc3c(c2)OC(F)(F)O3)n1 [Compound 366] | 100% | 100% | –
N#CC(C#N)=NOCc1csc(NN=C(c2ccc(Cl)cc2)c2ccc(Cl)cc2)n1 [Compound 367] | 100% | 100% | –
